# Experimental data from ChEMBL document CHEMBL6182948 (J Med Chem, 2025).
# What was measured:
# [1] = tested on: A549/TR; test: Inhibition of cell invasion in human A549/Taxol cells assessed as invasive cells at 5 uM incubated for 24 hrs by transwell invasion assay relative to control; type: functional; parameters: scale not given: the % may be the effect or the level left
# [2] = target: T1, Cytochrome P450 1A2 (Homo sapiens, UniProt P05177); test: Inhibition of human recombinant CYP1A2 using 7-ethoxyresorufin as substrate incubated under dark condition for 45 mins in presence of NADPH by EROD fluorescence assay; type: ADME
# T1 sequence (P05177 whole entry): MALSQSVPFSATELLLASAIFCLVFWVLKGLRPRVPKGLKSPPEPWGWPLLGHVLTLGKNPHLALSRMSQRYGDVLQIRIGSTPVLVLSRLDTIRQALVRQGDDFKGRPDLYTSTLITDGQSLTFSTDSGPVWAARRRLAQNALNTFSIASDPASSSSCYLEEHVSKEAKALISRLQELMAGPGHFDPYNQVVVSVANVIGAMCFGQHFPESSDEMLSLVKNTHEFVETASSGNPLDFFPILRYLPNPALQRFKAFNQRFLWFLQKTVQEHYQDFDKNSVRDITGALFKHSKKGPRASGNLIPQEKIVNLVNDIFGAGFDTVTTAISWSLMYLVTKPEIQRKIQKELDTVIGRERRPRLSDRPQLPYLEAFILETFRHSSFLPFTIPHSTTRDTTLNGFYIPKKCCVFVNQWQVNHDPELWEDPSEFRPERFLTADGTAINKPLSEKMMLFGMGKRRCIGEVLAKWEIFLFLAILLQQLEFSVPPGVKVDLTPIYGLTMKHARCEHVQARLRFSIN
# [3] = tested on: A549/TR; test: Inhibition of cell migration in human A549/Taxol cells assessed as wound closure at 5 uM measured after 24 hrs by scratch-wound healing assay relative to control; type: functional; parameters: scale not given: the % may be the effect or the level left
# [4] = target: T2, CYP1B1 (Homo sapiens, UniProt Q16678); test: Inhibition of human recombinant CYP1B1 using 7-ethoxyresorufin as substrate at 100 uM incubated under dark condition for 30 mins in presence of NADPH by EROD fluorescence assay relative to control; type: ADME; settings: recombinant CYP1B1, probe 7-ethoxyresorufin
# T2 sequence (Q16678 whole entry): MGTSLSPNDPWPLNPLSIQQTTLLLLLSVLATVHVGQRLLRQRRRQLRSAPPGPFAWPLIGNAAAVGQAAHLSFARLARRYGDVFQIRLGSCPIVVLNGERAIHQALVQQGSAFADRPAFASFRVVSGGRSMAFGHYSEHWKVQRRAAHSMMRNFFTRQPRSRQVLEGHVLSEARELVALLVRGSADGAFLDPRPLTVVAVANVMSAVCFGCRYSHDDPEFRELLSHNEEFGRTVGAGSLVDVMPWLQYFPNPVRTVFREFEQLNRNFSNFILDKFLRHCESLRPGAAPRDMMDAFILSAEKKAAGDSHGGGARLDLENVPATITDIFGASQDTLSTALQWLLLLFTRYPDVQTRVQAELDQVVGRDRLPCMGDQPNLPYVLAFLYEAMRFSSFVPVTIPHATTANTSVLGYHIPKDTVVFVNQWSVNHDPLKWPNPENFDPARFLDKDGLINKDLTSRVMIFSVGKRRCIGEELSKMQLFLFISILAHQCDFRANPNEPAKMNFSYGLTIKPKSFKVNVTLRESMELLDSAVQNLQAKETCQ
# [5] = tested on: A549; test: Antiproliferative against human A549 cells assessed as inhibition of cell viability incubated for 48 hrs by CCK-8 assay; type: functional, cell-based; settings: A549, 48 h
# [6] = Cytotoxicity against HUVEC assessed as inhibition of cell viability incubated for 48 hrs by CellTiter Glo assay; type: toxicity, cell-based; settings: human, HUVEC cells
# [7] = Cytotoxicity against human BEAS-2B cells assessed as inhibition of cell viability incubated for 48 hrs by CCK-8 assay; type: toxicity, cell-based
# [8] = Selectivity ratio of IC50 for antiproliferative activity against human A549/Taxol cells to IC50 for antiproliferative activity against human A549 cells; type: functional
# [9] = tested on: A549/TR; test: Antiproliferative activity against human A549/Taxol cells assessed inhibition of cell viability incubated for 48 hrs by CCK-8 assay; type: functional, cell-based
IC50 [9] [µM],SMILES,Activity [1] [%],IC50 [2] [µM],Activity [3] [%],"inhibition at 0.5 h, 100 µM [4] [%]",IC50 [5] [µM],IC50 at 48 h [6] [µM],IC50 at 48 h [7] [µM],Ratio IC50 [8]
–,COc1cc(/C=C/c2ccc(OC)cc2OC)cc(OC)c1,40.2,1.94,12.6,103,7.9,> 40,2.9,–
8.29,CC(=O)O[C@H]1C(=O)[C@@]2(C)[C@H]([C@H](OC(=O)c3ccccc3)[C@]3(O)C[C@H](OC(=O)[C@H](O)[C@@H](NC(=O)c4ccccc4)c4ccccc4)C(C)=C1C3(C)C)[C@]1(OC(C)=O)CO[C@@H]1C[C@@H]2O [PACLITAXEL],–,–,–,–,0.0314,–,–,263.8
